Reference: patent US7582655B2, “Antineoplastic compounds” (University of Saskatchewan, priority 2005, dated 2009)
Like-named read-outs stand apart in the source and are kept apart here.

Experiments:
SR = assay: Human tumour cell line panel, leukemic SR; format: cell-based
Protocol: (§1) In addition, both 5-fluorouracil and melphalan were evaluated towards 57 cell lines. […] MG MID is the average of the potencies of the compound to approximately 50 neoplastic cell lines.

COLO 205 = assay: Human tumour cell line panel, colon cancer COLO 205; format: cell-based
Protocol: as §1

[1] = test system: human periodontal ligament fibroblasts (HPLF); assay: Cytotoxicity CC50, MTT assay, normal HPLF cells
Protocol: (§2) In addition, the compounds were evaluated against human squamous cell carcinomas (HSC-2 and HSC-4) and human promyelocytic leukemia neoplasms (HL-60) and compared with normal cells, i.e. human gingival fibroblasts (HGF), human pulp cells (HPC) and human periodontal ligament fibroblasts (HPLF).
(§3) MTT stands for 3-(4,5-dimethylthiazol-2-yl)-2,5-diphenyltetrazolium bromide). The cells were incubated with varying concentrations of the compounds along with untreated cells for 24 h and the absorbance at 540 nm measured. In the case of the HL-60 assay, the trypan blue exclusion method was followed and cell viability was determined using a haemocytometer. The CC50 values were obtained from dose-response curves (Sakagami, H.; Satoh, K.; Ohata, H.; Takahashi, H.; Yoshida, H.; Iida, M.; Kuribayashi, N.; Sakagami, T.; Momose, K.; Takeda, M. Anticancer Res. 1996, 16, 2635-2644). The general methods used in culturing the cells employed in these cytotoxicity experiments have been described previously (Kawase, M.; Sakagami, H.; Motohashi, N.; Hauer, H.; Chatterjee, S. S.; Spengler, G.; Vigyikanne, A. V.; Molnár, A.; Molnár, J. In Vivo 2005, 19, 705-712; and Takeuchi, R.; Hoshijima, H.; Onuki, N.; Nagasaka, H.; Chowdhury, S. A.; Kawase, M.; Sakagami, H. Anticancer Res. 2005, 25, 4037-4042). In brief, the malignant cells were obtained from Professor Nagumo, Showa University, Japan. The HGF, HPC and HPLF cells were prepared from human periodontal tissue after obtaining informed consent according to the guidelines of Meikai University Ethics Committee, Japan (No. 0206). Since normal cells have a short lifespan, cells at the 3-7 population doubling time were used. With the exception of the HL-60 neoplasm, the cells were cultured in DMEM containing heat-inactivated FBS (10%) at 37° C. in a humidified carbon dioxide atmosphere and subcultured by trypsinization. The HL-60 cells were cultured in a similar fashion except that RPMI 1640 media was employed.

HCC 2998 = assay: Human tumour cell line panel, colon cancer HCC 2998; format: cell-based
Protocol: as §1

HCT 15 = assay: Human tumour cell line panel, colon cancer HCT 15; format: cell-based; details: read-out: Colon cancer cells, IC50(μM) HCT 15
Protocol: as §1

SW 620 = assay: Human tumour cell line panel, colon cancer SW 620; format: cell-based
Protocol: as §1

[2] = test system: human promyelocytic leukemia HL-60; assay: Cytotoxicity CC50, trypan blue exclusion, HL-60
Protocol: as §2, §3

[3] = test system: human squamous cell carcinomas HSC-2; assay: Cytotoxicity CC50, MTT assay, HSC-2
Protocol: as §2, §3

[4] = test system: human squamous cell carcinomas HSC-4; assay: Cytotoxicity CC50, MTT assay, HSC-4
Protocol: as §2, §3

human tumour cell lines = assay: Panel of human tumour cell lines, all cell lines (mean graph midpoint); format: cell-based
Protocol: A number of compounds of the invention were further assessed against numerous human malignant cell lines. An average of 49 cell lines from nine different neoplastic diseases, namely leukemia, melanoma, non-small cell lung, colon, central nervous system, ovarian, renal, prostate, and breast cancers were employed.
as §1

[5] = test system: human gingival fibroblasts (HGF); assay: Cytotoxicity CC50, MTT assay, normal HGF cells
Protocol: as §2, §3

K 562 = assay: Human tumour cell line panel, leukemic K 562; format: cell-based
Protocol: as §1

KM 12 = assay: Human tumour cell line panel, colon cancer KM 12; format: cell-based
Protocol: as §1

HCT 116 = assay: Human tumour cell line panel, colon cancer HCT 116; format: cell-based
Protocol: as §1

human pulp cells (HPC) = assay: Cytotoxicity CC50, MTT assay, normal HPC cells
Protocol: as §2, §3

[6] = test system: HSC-2, HSC-4 and HL-60 malignant cells; assay: Average CC50 for malignant cells
Protocol: as §2, §3

HL 60 = assay: Human tumour cell line panel, leukemic HL 60; format: cell-based
Protocol: as §1

RPMI 8226 = assay: Human tumour cell line panel, leukemic RPMI 8226; format: cell-based
Protocol: as §1

[7] = test system: murine L-5178 lymphoma cells transfected with the human MDR1 gene; assay: MDR reversal, rhodamine 123 fluorescence activity ratio; details: FAR >1 indicates MDR reversal
Protocol: A solution of the test compound (2 mg/ml, 10 μl) in dimethylsulfoxide was added to aliquots of the cell suspension and incubated at room temperature for 10 minutes. […] The cells were washed twice and resuspended in PBS (pH 7.4) after which the fluorescence was measured using a Beckton Dickinson FACScan instrument. The fluorescence of the cells was measured in treated MDR cells (F1), untreated MDR cells (F2), treated parental cells (F3) […] were obtained from the following equation, viz (F1/F2)/(F3/F4).

[8] = 48 h; read-out: Leukemic cells, IC50(μM) SR
[9] = 48 h; read-out: Colon cancer cells, IC50(μM) COLO 205
[10] = read-out: CC50(μM) HPLF, normal cells, 24 h, MTT
[11] = 48 h; read-out: Colon cancer cells, IC50(μM) HCC 2998
[12] = 48 h; read-out: Colon cancer cells, IC50(μM) SW 620
[13] = read-out: CC50(μM) HL-60, 24 h, trypan blue exclusion, average of two determinations
[14] = read-out: CC50(μM) HSC-2, 24 h, MTT, average of two determinations
[15] = read-out: CC50(μM) HSC-4, 24 h, MTT, average of two determinations
[16] = mean graph midpoint, average of 49 (38-59) human tumour cell lines, 48 h incubation, read-out: All cell lines IC50
[17] = read-out: CC50(μM) HGF, normal cells, 24 h, MTT
[18] = 48 h; read-out: Leukemic cells, IC50(μM) K 562
[19] = read-out: Colon cancer cells, IC50(μM) KM 12
[20] = 48 h; read-out: Colon cancer cells, IC50(μM) HCT 116
[21] = read-out: CC50(μM) HPC, normal cells, 24 h, MTT
[22] = average CC50 for HSC-2, HSC-4 and HL-60 malignant cells
[23] = 48 h; read-out: Leukemic cells, IC50(μM) HL 60
[24] = 48 h; read-out: Leukemic cells, IC50(μM) RPMI 8226
[25] = 48 h; read-out: Colon cancer cells, IC50(μM) KM 12

| Compound | IC50 (SR; [8]) [µM] | IC50 (COLO 205; [9]) [µM] | CC50 [1, 10] [µM] | IC50 (HCC 2998; [11]) [µM] | IC50 (HCT 15; 48 h) [µM] | IC50 (SW 620; [12]) [µM] | CC50 [2, 13] [µM] | CC50 [3, 14] [µM] | CC50 [4, 15] [µM] | IC50 (human tumour cell lines; [16]) [µM] | CC50 [5, 17] [µM] | IC50 (K 562; [18]) [µM] | IC50 (KM 12; [19]) [µM] | IC50 (HCT 116; [20]) [µM] | CC50 (human pulp cells (HPC); [21]) [µM] | CC50(μM) ave [6, 22] [µM] | IC50 (HL 60; [23]) [µM] | IC50 (RPMI 8226; [24]) [µM] | also measured |
| --- | --- | --- | --- | --- | --- | --- | --- | --- | --- | --- | --- | --- | --- | --- | --- | --- | --- | --- | --- |
| 3,5-bis(4-Chlorophenylmethylene)-1-[4-(2-dimethylaminoethoxy)phenyl-carbonyl]-4-piperidone hydrochloride hemihydrate [Compound 3b] | 0.126 | 1.7 | 4.3 | 0.263 | 0.295 | 0.209 | 1.7 | 2.3 | 1.8 | 1.91 | 23 | 0.331 | 1.74 | 6.03 | 11 | 1.9 | 1.41 | 0.098 |  |
| O=c1[nH]cc(F)c(=O)[nH]1 [5-Fluorouracil, 5-fluorouracil, reference compound] |  |  |  |  |  |  |  |  |  | > 29.5 |  |  |  |  |  |  |  |  | IC50 (SR; Homo sapiens, SR, 48 h; read-out: Leukemic cells, IC50(μM) SR): 60.3 µM; IC50 (COLO 205; Homo sapiens, COLO 205, 48 h; read-out: Colon cancer cells, IC50(μM) COLO 205): 3.39 µM; IC50 (HCC 2998; Homo sapiens, HCC 2998, 48 h; read-out: Colon cancer cells, IC50(μM) HCC 2998): 5.75 µM; IC50 (HCT 15; Homo sapiens, HCT-15, 48 h): 6.61 µM; IC50 (SW 620; Homo sapiens, SW-620, 48 h; read-out: Colon cancer cells, IC50(μM) SW 620): 18.6 µM; S.I. (selectivity index) (human tumour cell lines; ratio of the IC50 figures for the least and most sensitive cell lines): >4365; IC50 (K 562; Homo sapiens, K562, 48 h; read-out: Leukemic cells, IC50(μM) K 562): 126 µM; IC50 (KM 12; Homo sapiens, KM12, 48 h; read-out: Colon cancer cells, IC50(μM) KM 12): 7.94 µM; IC50 (HCT 116; Homo sapiens, HCT-116, 48 h; read-out: Colon cancer cells, IC50(μM) HCT 116): 2.04 µM; IC50 (HL 60; Homo sapiens, HL-60, 48 h; read-out: Leukemic cells, IC50(μM) HL 60): 85.1 µM; IC50 (RPMI 8226; Homo sapiens, RPMI-8226, 48 h; read-out: Leukemic cells, IC50(μM) RPMI 8226): 3.55 µM |
| 1-[4-(2-Dimethylaminoethoxy)phenylcarbonyl]-3,5-bis(4-methylphenyl-methylene)-4-piperidone hydrochloride hemihydrate [Compound 3d] | 0.479 | 1.02 | 3.4 | 0.229 | 0.912 | 0.562 | 0.85 | 1.4 | 2.1 | 1.15 | 7.9 | 1.82 | 0.776 | 1.38 | 7.2 | 1.5 | 1.32 | 0.224 |  |
| CC[N+](C)(CC)CCOc1ccc(C(=O)N2CC(=Cc3ccc(C)cc3)C(=O)C(=Cc3ccc(C)cc3)C2)cc1.[I-] [Compound 7d, 1-[4-(2-Diethylaminoethoxy)phenylcarbonyl]-3,5-bis(4-methylphenylmethylene)-4-piperidone methoiodide] | 22.9 | 8.91 |  | 6.17 | 9.33 | 10.5 |  |  |  | 7.76 |  | 1.35 |  | 14.1 |  |  | 11.8 | 1.26 | CC50 [1]: 8.3 µM; CC50 [2]: 16 µM; CC50 [3]: 17 µM; CC50 [4]: 17 µM; CC50 [5]: 34 µM; IC50 (KM 12; [25]): 9.33 µM; CC50 (human pulp cells (HPC)): 29 µM; FAR value 4 μg/ml ([7]; compound 4 μg/ml): 1.93; FAR value 40 μg/ml ([7]; compound 40 μg/ml): 114; CC50(μM) ave [6]: 17 µM |
| N[C@@H](Cc1ccc(N(CCCl)CCCl)cc1)C(=O)O [Melphalan, reference compound] |  |  | > 200 |  |  |  |  |  |  |  | > 200 |  |  |  | > 200 | 40.7 |  |  | IC50 (SR; Homo sapiens, SR, 48 h, read-out: Leukemic cells, IC50(μM) SR): 1.86 µM; IC50 (COLO 205; Homo sapiens, COLO 205, 48 h, read-out: Colon cancer cells, IC50(μM) COLO 205): 66.1 µM; IC50 (HCC 2998; Homo sapiens, HCC 2998, 48 h, read-out: Colon cancer cells, IC50(μM) HCC 2998): 41.7 µM; IC50 (SW 620; Homo sapiens, SW-620, 48 h, read-out: Colon cancer cells, IC50(μM) SW 620): 38.9 µM; CC50 ([2]; Homo sapiens, HL-60, 24 h, read-out: CC50(μM) HL-60): 6 µM; CC50 ([3]; Homo sapiens, HSC-2, 24 h, read-out: CC50(μM) HSC-2): 35 µM; CC50 ([4]; Homo sapiens, HSC-4, 24 h, read-out: CC50(μM) HSC-4): 81 µM; IC50 (human tumour cell lines; Homo sapiens, 48 h, read-out: All cell lines IC50(μM)): 26.9 µM; IC50 (K 562; Homo sapiens, K562, 48 h, read-out: Leukemic cells, IC50(μM) K 562): 43.7 µM; IC50 (KM 12; Homo sapiens, KM12, 48 h, read-out: Colon cancer cells, IC50(μM) KM 12): 43.7 µM; IC50 (HCT 116; Homo sapiens, HCT-116, 48 h, read-out: Colon cancer cells, IC50(μM) HCT 116): 30.2 µM; IC50 (HL 60; Homo sapiens, HL-60, 48 h, read-out: Leukemic cells, IC50(μM) HL 60): 2.04 µM; IC50 (RPMI 8226; Homo sapiens, RPMI-8226, 48 h, read-out: Leukemic cells, IC50(μM) RPMI 8226): 66.1 µM |
| 3,5-bis(4-Methyl phenylmethylene)-1-[4-{2-(4-morpholinyl)ethoxy}phenylcarbonyl]-4-piperidone hydrochloride hemihydrate [Compound 6d] | 0.245 | 1.15 | 12 |  | 0.832 | 1.02 | 1.2 | 1.6 | 2 | < 0.708 | 10 | 0.275 | 1.12 | 2.45 | 49 | 1.6 | 1.1 | 0.115 |  |
| Cl.O=C1C(=Cc2ccc(Cl)cc2)CN(C(=O)c2ccc(OCCN3CCOCC3)cc2)CC1=Cc1ccc(Cl)cc1 [Compound 6b, 3,5-bis(4-Chlorophenylmethylene)-1-[4-{2-(4-morpholinyl)ethoxy}phenylcarbonyl-4-piperidone hydrochloride] |  |  |  | < 0.005 | 2.19 | 1.45 |  |  |  | < 0.562 |  | 6.76 |  | 7.25 |  |  | 5.5 | 0.132 | CC50 [1]: 360 µM; CC50 [2]: 36 µM; CC50 [3]: 71 µM; CC50 [4]: 18 µM; CC50 [5]: 400 µM; IC50 (KM 12; [25]): 2.29 µM; CC50 (human pulp cells (HPC)): > 400 µM |
